Measured values published in US20200392158A1, “INHIBITORS OF LEUCINE RICH REPEAT KINASE 2” (GLAXOSMITHKLINE INTELLECTUAL PROPERTY DEVELOPMENT LIMITED, priority 2017, published 2020).

Target: T1, full length G2019 human LRRK2 (Homo sapiens, UniProt Q5S007, R50H)
T1 construct: made in house; host or cells: HEK293 6E cells transduced with BacMam virus (virus generated in Sf9 cells)
Experiment: Full length G2019 human LRRK2 inhibition mass spectrometry assay
Type: biochemical
Details: LRRKtide to phospho-LRRKtide conversion, RapidFire MS, 2 mM ATP
Description: a. Full Length G2019 Human LRRK2 Inhibition Mass Spectrometry Assay
This assay for Leucine Rich Repeat Kinase 2 (LRRK2) inhibition is based on the direct measurement of the peptide ‘LRRKtide’ (LRRKtide: RLGRDKYKT*LRQIRQ and “*” refers to the site of phosphorylation.) and phosphorylated ‘LRRKtide’ using a high throughput Rapid Fire mass spectrometry assay. Inhibitors are compounds that reduce the conversion of LRRKtide to phospho-LRRKtide.
• 1) Compounds were dissolved in 100% DMSO at a concentration of 10 mM, and 11-point dose response curves generated using a 1 in 4 serial dilution in DMSO. 100 nL of this dilution series was then added to a 384 well, v bottom polypropylene plate (Greiner 781280), excluding columns 6 and 18. 100 nL of DMSO were added to column 6 to serve as the high control, while column 18 served as the low control containing assay buffer in place of the LRRK2 protein. Assay dilution gave a top final assay concentration of test compound of […] • 2) 5 μL of ‘enzyme solution’ containing 2× final assay concentration of purified recombinant Full length Flag-LRRK2 in assay buffer (50 mM Hepes, pH 7.2, 10 mM MgCl2, 150 mM NaCl, 5% glycerol, 0.0025% Triton X-100 and 1 mM DTT) were added to all wells using a Multidrop Combi dispenser (ThermoFisher Scientifiec), giving a final assay concentration of 25 nM LRRK2 enzyme (final concentration may vary depending on specific activity of different enzyme batches). • 3) 5 μL of substrate solution containing 50 μM LRRKtide peptide substrate and […] was added to all wells of the plate using a Multidrop Combi dispenser giving a final assay concentration of 25 μM LRRKtide peptide and 2 mM ATP. Test plates were then incubated for 1 hour at room temperature. (Incubation may vary depending on rate and linearity of reaction with different enzyme batches). • 4) 50 μl of 1% formic acid in laboratory grade water was added to all wells to quench the reaction, and plates were heat-sealed prior to centrifugation at 1348×g for 10 minutes. Test plates were then analysed on an Agilent RapidFire High Throughput solid phase extraction system coupled to AB Sciex API 4000 triple quadropole mass spectrometer with the following setting:
• Sip Height=2 mm, Aspirate=500 ms, Load time=3000 ms, Elution time=3000 ms, Requilibration=500 ms. • Flow rates: pump 1=1.5 mL/min, pump 2 1.25 mL/min pump 3=0.8 mL/min
Mass Spectrometer Settings: • LRRKtide Detection settings: Q1 mass 644.8 Da, Q3 mass 638.8, declustering potential 76 volts, collision energy 37 volts, CXP 34 volts. • Phospho-LRRKtide Detection settings: Q1 mass 671.4 Da, Q3 mass 638.8, Declustering potential 76 volts, Collision energy 37 volts, CXP 34 volts. • A C4 cartridge was used and running buffers were: A (aqueous) 0.1% formic acid in water B (organic) 0.1% formic acid, 80% acetonitrile, 20% water. • Collision gas: 12, Curtain gas: 25, Ion Source gas (1): 60, Ion Source gas (2): 60, Ion Spray Voltage: 5500, Temperature: 600, Interface Heater: ON. • Resolution Q1: low, Resolution Q3: low. • 5) Data were analysed using ActivityBase software (IDBS). A percent conversion from LRRKtide to Phospho-LRRKtide was calculated using the following formula:
% conversion=(Phospho-LRRKtide product peak area/(Phospho-LRRKtide product peak area+LRRKtide substrate peak area))*100 • A logistic 4 parameter curve fit was applied, using the following formula,
[formula] • Where x is the concentration of test sample, y is inhibition (%), a is the minimum, b is the Hill slope, c is the IC50 and d is the maximum. From this, the pIC50 was derived (−log IC50).

T1 sequence (Q5S007 with tags, fused parts or gaps R50H): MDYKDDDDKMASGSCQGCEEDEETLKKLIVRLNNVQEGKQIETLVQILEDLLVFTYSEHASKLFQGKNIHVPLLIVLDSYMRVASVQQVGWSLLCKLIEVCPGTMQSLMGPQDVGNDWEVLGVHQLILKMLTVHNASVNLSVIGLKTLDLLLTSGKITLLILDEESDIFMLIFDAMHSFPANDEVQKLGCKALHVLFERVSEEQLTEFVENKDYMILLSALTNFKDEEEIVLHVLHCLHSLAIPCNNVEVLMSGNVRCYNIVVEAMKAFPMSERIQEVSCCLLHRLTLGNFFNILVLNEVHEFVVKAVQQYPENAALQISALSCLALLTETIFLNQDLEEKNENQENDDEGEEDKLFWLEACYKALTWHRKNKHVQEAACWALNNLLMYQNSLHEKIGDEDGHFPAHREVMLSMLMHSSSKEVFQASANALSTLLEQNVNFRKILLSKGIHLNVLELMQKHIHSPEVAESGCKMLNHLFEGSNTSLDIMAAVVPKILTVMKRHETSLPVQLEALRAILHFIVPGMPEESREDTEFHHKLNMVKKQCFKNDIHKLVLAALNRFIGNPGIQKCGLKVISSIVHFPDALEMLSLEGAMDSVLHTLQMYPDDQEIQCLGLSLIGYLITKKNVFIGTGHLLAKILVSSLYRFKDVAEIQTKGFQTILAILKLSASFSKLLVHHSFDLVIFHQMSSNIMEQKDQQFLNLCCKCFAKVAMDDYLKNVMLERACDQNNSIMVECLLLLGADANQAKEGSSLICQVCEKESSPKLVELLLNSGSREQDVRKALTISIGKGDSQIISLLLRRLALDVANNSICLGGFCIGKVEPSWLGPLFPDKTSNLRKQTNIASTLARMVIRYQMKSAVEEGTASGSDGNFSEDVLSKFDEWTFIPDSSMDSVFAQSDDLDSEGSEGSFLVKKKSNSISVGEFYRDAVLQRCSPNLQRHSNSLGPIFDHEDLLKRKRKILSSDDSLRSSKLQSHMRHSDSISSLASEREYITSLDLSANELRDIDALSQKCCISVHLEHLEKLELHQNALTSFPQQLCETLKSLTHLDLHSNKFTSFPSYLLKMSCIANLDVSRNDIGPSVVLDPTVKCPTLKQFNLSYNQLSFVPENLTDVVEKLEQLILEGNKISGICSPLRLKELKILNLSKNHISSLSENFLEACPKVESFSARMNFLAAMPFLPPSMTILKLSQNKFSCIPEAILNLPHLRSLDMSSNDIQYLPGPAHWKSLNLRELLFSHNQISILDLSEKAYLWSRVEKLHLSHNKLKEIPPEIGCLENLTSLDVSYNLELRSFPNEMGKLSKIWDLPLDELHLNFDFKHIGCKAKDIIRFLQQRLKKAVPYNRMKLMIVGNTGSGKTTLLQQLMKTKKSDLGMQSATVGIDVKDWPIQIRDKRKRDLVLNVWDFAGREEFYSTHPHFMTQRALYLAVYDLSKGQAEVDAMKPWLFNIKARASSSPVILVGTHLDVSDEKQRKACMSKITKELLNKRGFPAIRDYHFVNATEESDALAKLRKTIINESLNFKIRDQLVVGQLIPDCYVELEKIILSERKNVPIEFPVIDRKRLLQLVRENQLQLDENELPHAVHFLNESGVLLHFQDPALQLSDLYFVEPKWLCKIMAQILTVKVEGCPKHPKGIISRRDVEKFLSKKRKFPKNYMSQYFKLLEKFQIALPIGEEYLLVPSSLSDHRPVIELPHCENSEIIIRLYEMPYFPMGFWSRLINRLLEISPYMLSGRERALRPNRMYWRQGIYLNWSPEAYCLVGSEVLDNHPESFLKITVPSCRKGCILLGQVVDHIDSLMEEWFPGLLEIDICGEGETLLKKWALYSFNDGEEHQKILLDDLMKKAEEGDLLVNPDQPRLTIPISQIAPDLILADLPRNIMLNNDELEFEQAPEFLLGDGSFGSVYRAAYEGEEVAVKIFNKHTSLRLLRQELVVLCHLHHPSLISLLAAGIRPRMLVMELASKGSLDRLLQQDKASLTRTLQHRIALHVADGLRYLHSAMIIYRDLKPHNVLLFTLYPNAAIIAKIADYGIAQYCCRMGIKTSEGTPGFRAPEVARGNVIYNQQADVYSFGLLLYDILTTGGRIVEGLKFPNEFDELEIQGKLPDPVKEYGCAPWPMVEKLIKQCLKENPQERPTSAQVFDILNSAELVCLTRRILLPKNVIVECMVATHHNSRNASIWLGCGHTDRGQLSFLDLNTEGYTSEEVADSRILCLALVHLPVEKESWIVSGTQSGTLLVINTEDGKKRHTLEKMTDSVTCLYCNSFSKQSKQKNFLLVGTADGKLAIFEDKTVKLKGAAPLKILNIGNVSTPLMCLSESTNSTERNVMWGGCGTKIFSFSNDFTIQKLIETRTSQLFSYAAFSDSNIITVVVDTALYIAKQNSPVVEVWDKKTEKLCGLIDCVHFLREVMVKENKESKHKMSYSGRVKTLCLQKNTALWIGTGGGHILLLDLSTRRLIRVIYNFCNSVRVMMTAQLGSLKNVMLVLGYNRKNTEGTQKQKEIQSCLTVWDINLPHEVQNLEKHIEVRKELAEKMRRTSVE

SMILES	IC50
Cc1c2c(nn1C1CCOC1)OCCCNc1nc(ncc1Cl)N2 (single isomer, unassigned) [E124, 14-chloro-4-methyl-5-(oxolan-3-yl)-8-oxa-2,5,6,12,16,17-hexaazatricyclo[11.3.1.0^3,7]heptadeca-1(16),3,6,13(17), 14-pentaene]	≤ 100 nM
Cc1c2c(nn1C1CCOC1)OCCCNc1nc(ncc1C(F)(F)F)N2 (single isomer, unassigned) [E128, 4-methyl-5-(oxolan-3-yl)-14-(trifluoromethyl)-8-oxa-2,5,6,12,16,17-hexaazatricyclo[11.3.1.0^3,7]heptadeca-1(16),3,6,13(17),14-pentaene]	≤ 100 nM
Cc1c2c(nn1C1CCOCC1)OCC(C)CNc1nc(ncc1Cl)N2 (single isomer, unassigned) [E137, 14-chloro-4,10-dimethyl-5-(oxan-4-yl)-8-oxa-2,5,6,12,16,17-hexaazatricyclo[11.3.1.0^3,7]heptadeca-1(16),3,6,13(17),14-pentaene]	≤ 100 nM
Cc1c2c(nn1C1CCOCC1C)OCCCNc1nc(ncc1Cl)N2 (single isomer, unassigned) [E140, 14-chloro-4-methyl-5-(3-methyloxan-4-yl)-8-oxa-2,5,6,12,16,17-hexaazatricyclo[11.3.1.0^3,7]heptadeca-1(16),3,6,13(17),14-pentaene]	≤ 100 nM
Cc1c2c(nn1C1CCOCC1C)OCCCNc1nc(ncc1Cl)N2 (single isomer, unassigned) [E141, 14-chloro-4-methyl-5-(3-methyloxan-4-yl)-8-oxa-2,5,6,12,16,17-hexaazatricyclo[11.3.1.0^3,7]heptadeca-1(16),3,6,13(17),14-pentaene]	≤ 100 nM
Clc1cnc2nc1NCCCOc1nn(C3CCOC3)c(Cl)c1N2 (single isomer, unassigned) [E146, 4,14-Dichloro-5-(oxolan-3-yl)-8-oxa-2,5,6,12, 16,17-hexaaza tricyclo[11.3.1.0^3,7]heptadeca-1(16),3,6,13(17), 14-pentaene]	≤ 100 nM
Cc1c2c(nn1C1CCC(N3CCC(F)C3)CC1)OCCCNc1nc(ncc1Cl)N2 (single isomer, unassigned) [E154, 14-Chloro-5-[4-(3-fluoropyrrolidin-1-yl)cyclohexyl]-4-methyl-8-oxa-2,5,6,12,16,17-hexaazatricyclo[11.3.1. 0^3,7]heptadeca-1(16),3,6,13(17),14-pentaene]	≤ 100 nM
Cc1c2c(nn1C1CCC(N3CCC(F)C3)CC1)OCCCNc1nc(ncc1Cl)N2 (single isomer, unassigned) [E155, 14-Chloro-5-[4-(3-fluoropyrrolidin-1-yl)cyclohexyl]-4-methyl-8-oxa-2,5,6,12,16,17-hexaazatricyclo[11.3.1. 0^3,7]heptadeca-1(16),3,6,13(17),14-pentaene]	≤ 100 nM
COC1CCCC(n2nc3c(c2C)Nc2ncc(Cl)c(n2)NCCCO3)C1 (single isomer, unassigned) [E180, 14-Chloro-5-(3-methoxycyclohexyl)-4-methyl-8-oxa-2,5,6,12,16,17-hexaazatricyclo[11.3.1.0^3,7]heptadeca-1(16),3,6,13(17),14-pentaene]	≤ 100 nM
COC1CCCC(n2nc3c(c2C)Nc2ncc(Cl)c(n2)NCCCO3)C1 (single isomer, unassigned) [E181, 14-Chloro-5-(3-methoxycyclohexyl)-4-methyl-8-oxa-2,5,6,12,16,17-hexaazatricyclo[11.3.1.0^3,7]heptadeca-1(16),3,6,13(17),14-pentaene]	100000 nM
Cc1c2c(nn1C(C)C1CCOCC1)OCCC(C)Nc1nc(ncc1Cl)N2 (single isomer, unassigned) [E182, 14-Chloro-4,11-dimethyl-5-[1-(oxan-4-yl)ethyl]-8-oxa-2,5,6,12,16,17-hexaazatricyclo[11.3.1.0^3,7]heptadeca-1(16),3,6,13(17),14-pentaene]	≤ 10000 nM
Cc1c2c(nn1C(C)C1CCOCC1)OCCC(C)Nc1nc(ncc1Cl)N2 (single isomer, unassigned) [E184, 14-Chloro-4,11-dimethyl-5-[1-(oxan-4-yl)ethyl]-8-oxa-2,5,6,12,16,17-hexaazatricyclo[11.3.1.0^3,7]heptadeca-1(16),3,6,13(17),14-pentaene]	≤ 100 nM
Cc1c2c(nn1C(C)C1CCOCC1)OCCC(C)Nc1nc(ncc1Cl)N2 (single isomer, unassigned) [E185, 14-Chloro-4,11-dimethyl-5-[1-(oxan-4-yl)ethyl]-8-oxa-2,5,6,12,16,17-hexaazatricyclo[11.3.1.0^3,7]heptadeca-1(16),3,6,13(17),14-pentaene]	≤ 10000 nM
Cc1c2c(nn1C(C)C1CCOCC1)OCCCNc1nc(ncc1Cl)N2 (single isomer, unassigned) [E187, 14-Chloro-4-methyl-5-[1-(oxan-4-yl)ethyl]-8-oxa-2,5,6,12,16,17-hexaazatricyclo[11.3.1.0^3,7]heptadeca-1(16), 3,6,13(17),14-pentaene]	≤ 100 nM
Cc1c2c(nn1C1CCOCC1)OCCC(C(F)(F)F)Nc1nc(ncc1Cl)N2 (single isomer, unassigned) [E193, 14-Chloro-4-methyl-5-(oxan-4-yl)-11-(trifluoromethyl)-8-oxa-2,5,6,12,16,17-hexaazatricyclo[11.3.1.0^3,7] heptadeca-1(16),3,6,13(17),14-pentaene]	≤ 10000 nM
Cc1c2c(nn1C1CC(C)OC(C)C1)OCCC(C)Nc1nc(ncc1Cl)N2 (single isomer, unassigned) [E195, 14-Chloro-5-(2,6-dimethyloxan-4-yl)-4,11-dimethyl-8-oxa-2,5,6,12,16,17-hexaazatricyclo[11.3.1.0^3,7] heptadeca-1(16),3,6,13(17),14-pentaene]	≤ 100 nM
Cc1c2c(nn1C1CC(C)OC(C)C1)OCCC(C)Nc1nc(ncc1Cl)N2 (single isomer, unassigned) [E197, 14-Chloro-5-(2,6-dimethyloxan-4-yl)-4,11-dimethyl-8-oxa-2,5,6,12,16,17-hexaazatricyclo[11.3.1.0^3,7] heptadeca-1(16),3,6,13(17),14-pentaene]	≤ 10000 nM
COC1CNc2nc(ncc2Cl)Nc2c(nn(C3CC(C)OC(C)C3)c2C)OC1 (single isomer, unassigned) [E199, 14-Chloro-5-(2,6-dimethyloxan-4-yl)-10-methoxy-4-methyl-8-oxa-2,5,6,12,16,17-hexaazatricyclo[11.3.1.0^3,7] heptadeca-1(16),3,6,13(17),14-pentaene]	≤ 10000 nM
Cc1c2c(nn1C1CC(C)OC(C)C1)OCCCNc1nc(ncc1Cl)N2 (single isomer, unassigned) [E201, 14-Chloro-5-(2,6-dimethyloxan-4-yl)-4-methyl-8-oxa-2,5,6,12,16,17-hexaazatricyclo[11.3.1.0^3,7]heptadeca-1(16),3,6,13(17),14-pentaene]	≤ 100 nM
Cc1c2c(nn1C1CCOC(C)C1)OCCCNc1nc(ncc1Cl)N2 (single isomer, unassigned) [E203, 14-Chloro-4-methyl-5-(2-methyloxan-4-yl)-8-oxa-2,5,6,12,16,17-hexaazatricyclo[11.3.1.0^3,7]heptadeca-1(16),3,6,13(17),14-pentaene]	≤ 100 nM
Cc1c2c(nn1CCN1C[C@H]3C[C@@H]1CO3)OCCC(C)Nc1nc(ncc1Cl)N2 (single isomer, unassigned) [E209]	≤ 10000 nM
Cc1c2c(nn1CCN1C[C@H]3C[C@@H]1CO3)OCCC(C)Nc1nc(ncc1Cl)N2 (single isomer, unassigned) [E210]	≤ 100 nM
